# Assay results as given in patent publication US10752647B2, “N-phosphonoxymethyl prodrugs of hydroxyalkyl thiadiazole derivatives” (DAIICHI SANKYO COMPANY, LIMITED, priority 2017, dated 2020).
# Where two headings read alike, the source gives them in different places.
# Assays:
# [1] = Solubility of parent compounds and prodrugs in phosphate buffer; format: physicochemical; details: aqueous buffer, thermodynamic from solid; parent compound, phosphate buffer, 25° C., more than 4 weeks, pH 7.0
# Description: Parent compounds: About 5 mg of parent compounds (biologically active forms of prodrugs) were added to 950 μL of phosphate buffer, and mixed vigorously for 1 hour at 25° C. Then, these samples were stored at 25° C. for more than 4 weeks and filtered to remove undissolved parent compounds. Next, these solutions were diluted with 50% aqueous acetonitrile solution. The resulting test solutions were assayed by HPLC. Prodrugs: About 30 mg of prodrugs were added to 120 μL of phosphate buffer, and mixed vigorously for 1 hour at 25° C. After shaking, pH of these solutions were adjusted at pH 7.0 by 1 mol/L NaOH solution. Then, the total volume were adjusted to 280 μL with purified water. Next, these solutions were stored at 25° C. for more than 4 weeks and filtered to remove undissolved compounds. These solutions were diluted with 50% aqueous acetonitrile solution. The resulting test solutions were assayed by HPLC.
# [2] = Conversion efficiency / PK profile after IV dose in rats (Compounds No. 5 and No. 7); format: in vivo; details: Rat, plasma, parent compound IV 1 mg/kg; read-out: Parent compound AUCinf
# Description: Determination of conversion efficiency of Compound No. 5 and Compound No. 7 was conducted in rats. Animals were divided in two groups with two animals in each group. One group received an IV dose of prodrug and the other group received an IV dose of parent compound. Serial blood sampling was carried out at 0.08, 0.25, 0.5, 1, 2, 4, 7, and 24 h post dose from both of the animal groups. Blood samples were centrifuged to harvest plasma. Plasma samples of prodrug administered animals were simultaneously analyzed for both analytes (prodrug and parent compound) using LC-MS/MS. AUC of plasma concentrations versus time profiles were calculated in WinNonlin software and percentage conversion efficiency was determined using the formula: Percentage conversion efficiency=(AUCiv of parent compound from prodrug administered samples)/(AUCiv of parent compound from parent compound administered samples)/(molecular weight of parent compound)×(molecular weight of prodrug)×100. PK profile of Compound No. 5 and Compound No. 7 in rats are depicted in Table 7.
# [3] = Solubility in Japanese Pharmacopeia First Fluid (JP1) and Second Fluid (JP2); format: physicochemical; details: thermodynamic from solid, room temperature
# Description: Method of Testing Solubility in Water and Neutral Buffer A 10 mmol/L solution of the test compound was prepared in DMSO and dispensed 100 μL of 10 mmol/L DMSO stock solutions into labeled glass tubes in duplicate, one for Japanese Pharmacopeia First Fluid (JP1) and second for Japanese Pharmacopeia Second Fluid (JP2). After evaporation of DMSO from each tube, 500 μL of JP1 and JP2 fluid were added in each tube, respectively. These tubes were sonicated for 1 minute and placed on shaker for 30 minutes with an interval of 30 seconds at every 5 minute. Tubes were placed in dark at room temperature for 1 hour and solution was filtered through membrane filter. The filtrate was diluted 2-fold and 10-fold. The resulting test solutions was analyzed and quantified against the standards using UPLC (standard preparation-10 mmol/L solution in DMSO is serially diluted with 50% aqueous acetonitrile solution to prepare 2 solutions; 100 μmol/L standard solution and 5 μmol/L standard solutions).
# [4] = Conversion efficiency / PK profile after IV dose in rats (Compounds No. 1 and No. 2); format: in vivo; details: 15.3 mg/kg; Rat, plasma, prodrug IV 15.300 mg/kg, analyte prodrug; read-out: Compound No. 1 AUCinf
# Description: Method of Testing Conversion Efficiency Determination of conversion efficiency of Compound No. 1 and Compound No. 2 was conducted in rodents (mice and rats) and non-rodents (monkeys and dogs). Animals were divided in two groups with two animals in each group. One group received an intravenous (IV) dose of prodrug and the other group received an IV dose of parent compound. The dose of prodrug was taken as molar equivalent dose of parent compound. Serial blood sampling was carried out at 0.083, 0.33, 1, 2, 4, 8 and 24 h post IV dose from both the animal groups. Blood samples were centrifuged to harvest plasma. Plasma samples were stored at −80° C. until analysis. Plasma samples of prodrug administered animals were simultaneously analyzed for both analytes (prodrug and parent compound) using LC-MS/MS. Area under the curve (AUC) of plasma concentrations versus time profiles were calculated in WinNonlin software and percentage conversion efficiency was determined using the formula: Percentage conversion efficiency=(AUCiv of parent compound (from prodrug administered samples)×100/(AUCiv of parent compound (from parent compound administered samples). PK profile of Compounds No. 1 and No. 2 in rats, dogs and monkeys are depicted in Table 5 and 6, respectively (also shown in FIGS. 1 and 2).
# MRSA 562 = experiment: Mouse lung infection model by MRSA 562 (neutropenic Swiss mice); format: in vivo, Staphylococcus aureus
# Description: a) Method for Testing Therapeutic Effect of Compounds Using Mouse Lung Infection Model by MRSA 562
# Mice were rendered neutropenic with two intra-peritoneal injections (IP) of cyclophosphamide on day −4 and day −1 prior to infection at the dose rate of 150 mg and 100 mg per kg body weight. Overnight grown MRSA 562 was diluted 1:10 in fresh Brain Heart Infusion broth and mixed 1:1 with 5% hog mucin. The bacterial suspension (3.16×10^6/mouce/50 μL) was then inoculated to each pre-anaesthetized mice (xylazine 5 mg/kg and ketamine 100 mg/kg mixture) into the nares of Swiss mice (4 to 6-week-old, Vivo Biotech Limited, Hyderabad, India), n=5 mice per group). The test compound was administered to the mice once, twice and four times at an interval of 24, 12 and 6 hr, respectively. The number of bacteria in the lungs was determined in the non-treated group immediately before initial administration of the test compound (pre-control) and in the non-treated group (post-control) and the test compound-administered group on the next day of administration of the test compound and infection. A change in the number of bacteria in the lungs was used as an index of therapeutic effect.
# MRSA 02541 [5] = experiment: Neutropenic mouse thigh infection model, MRSA 02541; format: in vivo, Staphylococcus aureus
# Description: (§1) (b) Method for Testing Therapeutic Effect of Compounds Against MRSA 02541 and VRE IV258 21076 Using Neutropenic Mouse Thigh Infection Model
# (§2) Swiss Webster mice of 4 to 6-week-old were used for this experiments (Vivo Biotech Limited, Hyderabad, India, n=5 mice per group). Mice were rendered neutropenic as described above. Overnight grown culture of MRSA 02541 on Mueller-Hinton broth (MHB) was adjusted to 0.5 Mac Farland. The suspension was then diluted 1:100 in fresh MHB and 100 μl was injected intra-muscularly in the right thigh muscles of the mice (n=5/group). In case of VRE IV 258-21076 culture was mixed with 10% hog mucin in 1:1 proportion. The bacterial inocula were confirmed by quantitative culture analyses and found to be 3×10^6 CFU for MRSA and 2×10^6 for VRE IV258-21076 per mL. Treatment started 2 h post infection. The test compound was administered to the mice one to eight times at an interval of 3 to 24 hr. The number of bacteria in the thigh muscle was counted for the non-treated group immediately before initial administration of the test compound (pre-control), for the non-treated group (post-control) and for the test compound-administered group on the next day of administration of the test compound and infection. A change in the number of bacteria in the thigh was used as an index of therapeutic effect.
# VRE IV258 21076 = experiment: Neutropenic mouse thigh infection model, VRE IV258 21076; format: in vivo, Enterococcus
# Description: as §1, §2
# MRSA 02541 [6] = experiment: Neutropenic Sprague Dawley rat thigh infection model, MRSA 02541; format: in vivo, Staphylococcus aureus; details: for log10 kill (number of bacteria in the thigh): 25 mg/kg, IV qid
# Description: c) Method for Testing Therapeutic Effect of Compounds Against MRSA 02541 Using Neutropenic Sprague Dawley Rat Thigh Infection Model
# Sprague Dawley rats of 4 to 6-week-old were used for this experiments (Vivo Biotech Limited, Hyderabad, India, n=4 rats per group). Rats were rendered neutropenic by intraperitoneal injection of cyclophosphamide. Overnight grown culture of MRSA 02541 in MHB was adjusted to 0.5 Mac Farland. The suspension was then diluted 1:10 in fresh MHB and 200 μl was injected intra-muscularly in the right thigh muscles of the rat. The bacterial inocula were confirmed by quantitative culture analyses and found to be 6×10^6 CFU per rat thigh muscle. Treatment started 2 h post infection. The test compound was administered to the rat four times at an interval of 6 hr. The number of bacteria in the thigh muscle was counted for the non-treated group immediately before initial administration of the test compound (2 h pre-control), for the non-treated group (26 h post-control) and for the test compound-administered group on the next day of administration of the test compound and infection. A change in the number of bacteria in the thigh was used as an index of therapeutic effect.
# [7] = tested on: Clostridium difficile 2009155, a NAP1/027 strain; experiment: Hamster CDI model; format: in vivo; details: 0.3 mg/kg/day for 5 days
# Description: d) Method for Testing Therapeutic Effect of Compounds in Hamster CDI Model
# The in vivo efficacy of Compound No. 1 was evaluated in a hamster CDI model caused by Clostridium difficile 2009155, a NAP1/027 strain. The Syrian hamsters (7-9 weeks old, National Centre for Laboratory Animal Sciences, National Institute Nutrition, Hyderabad, India.) were acclimatized at least 7 days prior the experiment. Hamsters primed with a single subcutaneous injection of clindamycin (30 mg/kg) 1 day prior to infection. Hamsters were infected by oral gavage with 1 mL of spore suspension (2-3×10^5) prepared in PBS. The test compounds were prepared using the 0.25 w/v % Methyl Cellulose Solution for oral administration and 10% HP ß-CD for SC administration and treatment was started 6 h post infection at an interval of 24 h for 5 days. Hamsters were administered a dose of 0.03-0.3 mg/kg/day for 5 days. The death and survival time of the hamsters treated with test compound administered group and non-treated group (vehicle-control) were recorded once daily for 35 days and were compared. A change in the survival time was used as an index of therapeutic effect.
# [8] = Solubility of parent compounds and prodrugs in phosphate buffer; format: physicochemical; details: aqueous buffer, thermodynamic from solid; prodrug, phosphate buffer adjusted with NaOH, 25° C., more than 4 weeks, pH 7.2
# animal infection models = details: compound of WO 2009/084614; cited from earlier work
structure (smiles),measurement,setting,value
"CCc1[nH]c(C(=O)N[C@@H]2CCN(c3nnc([C@H](O)CO)s3)C[C@@H]2OC)nc1Cl [Compound C, 4-chloro-N-[(3S,4R)-1-{5-[(1R)-1,2-dihydroxyethyl]-1,3,4-thiadiazol-2-yl}-3-methoxypiperidin-4-yl]-5-ethyl-1H-imidazole-2-carboxamide]",solubility,[1],2440 µg/mL
same,AUC(0-inf),[2],990 ng·h/mL
"CCc1[nH]c(C(=O)N[C@@H]2CCN(c3nnc(C(C)O)s3)C[C@@H]2OC)nc1Cl (stereo partly drawn) [Compound D, 4-chloro-5-ethyl-N-{(3S,4R)-1-[5-(1-hydroxyethyl)-1,3,4-thiadiazol-2-yl]-3-methoxypiperidin-4-yl}-1H-imidazole-2-carboxamide]",solubility,[1],752 µg/mL
same,AUC(0-inf),[2],3110 ng·h/mL
"CCc1c(Cl)nc(C(=O)N[C@@H]2CCN(c3nnc(C(C)(C)O)s3)C[C@@H]2OC)n1COP(=O)(O)O [Compound No. 1, [4-Chloro-5-ethyl-2-({(3S,4R)-1-[5-(2-hydroxypropan-2-yl)-1,3,4-thiadiazol-2-yl]-3-methoxypiperidin-4-yl}carbamoyl)-1H-imidazol-1-yl]methyl dihydrogen phosphate]",solubility at 30 min,"[3]; pH 1.2, simulated gastric fluid, Japanese Pharmacopeia First Fluid (JP1), read-out: Solubility JP1",> 1280 µg/mL
same,solubility at 30 min,"[3]; pH 6.8, aqueous buffer, Japanese Pharmacopeia Second Fluid (JP2), read-out: Solubility JP2",> 1320 µg/mL
same,AUC(0-inf),[4],270 ng·h/mL
same,log10 kill (number of bacteria in the lungs),"MRSA 562; 6.25 mg/kg/dose, SC q6h, compared to 1 hour pre-control",1.33 log10
same,log10 kill (number of bacteria in the lungs),"MRSA 562; 6.25 mg/kg/dose, SC q6h, compared to 25 hour post control",2.52 log10
same,log10 kill (number of bacteria in the lungs),"MRSA 562; 12.5 mg/kg/dose, SC, q6h, compared to 1 hour pre-control",1.76 log10
same,log10 kill (number of bacteria in the lungs),"MRSA 562; 12.5 mg/kg/dose, SC, q6h, compared to 25 hour post control",2.95 log10
same,Therapeutic effect (change in the number of bacteria in the lungs),"MRSA 562; mouse lung infection, MRSA 562",exhibited the therapeutic effect
same,Cidal potential (number of bacteria in the thigh),"MRSA 02541 [5]; 200 mg/kg/dose q24h, 100 mg/kg/dose q24h, and 50 mg/kg/dose q24h and their fractions irrespective of dosing schedule",cidal potential
same,Therapeutic effect (change in the number of bacteria in the thigh),"MRSA 02541 [5]; neutropenic mouse thigh, MRSA 02541",exhibited the therapeutic effect
same,Cidal potential (number of bacteria in the thigh),"VRE IV258 21076; fractionated doses 50 mg/kg/dose q12h, 25 mg/kg/dose q6h, 12.5 mg/kg/dose q3h",cidal potential
same,Therapeutic effect (change in the number of bacteria in the thigh),"VRE IV258 21076; neutropenic mouse thigh, VRE IV258 21076",exhibited the therapeutic effect
same,log10 kill (number of bacteria in the thigh),MRSA 02541 [6]; compared to 2 hours pre-control,1 log10
same,log10 kill (number of bacteria in the thigh),MRSA 02541 [6]; compared to 26 hours post control,2.99 log10
same,Therapeutic effect (change in the number of bacteria in the thigh),"MRSA 02541 [6]; neutropenic rat thigh, MRSA 02541",exhibited the therapeutic effect
same,Survival on day 35,[7],100%
"CCc1c(Cl)nc(C(=O)N[C@@H]2CCN(c3nnc([C@@H](O)CO)s3)C[C@@H]2OC)n1COP(=O)(O)O [Compound No. 9, [4-Chloro-2-({(3S,4R)-1-[5-(1,2-dihydroxyethyl)-1,3,4-thiadiazol-2-yl]-3-methoxypiperidin-4-yl}carbamoyl)-5-ethyl-1H-imidazol-1-yl]methyl dihydrogen phosphate]",solubility,[8],102000 µg/mL
CCO[C@H]1CN(c2nncs2)CC[C@H]1NC(=O)c1nc(Cl)c(CC)[nH]1 [Compound No. 150],Efficacy in animal infection models,animal infection models,not being efficacious
